According to US8445500B2, “Pesticidal compositions” (Dow AgroSciences, LLC., priority 2007, dated 2013):

Tests used:
Assay type in all cases: in vivo
[1] = system: Tobacco Budworm Heliothis virescens; test: Insecticidal assay 2, tobacco budworm, 96-well diet plate; details: H. virescens eggs and early instars; 2 microliters of 4 micrograms per microliter in DMSO per well on diet; 200 ppm piperonyl butoxide co-applied; assessed after 6 days at 29° C.
Method: 2. Insecticidal Assay for Tobacco Budworm Heliothis virescens:
Objective: To evaluate the insecticidal activity of compounds against H. virescens eggs and early instars through contact and ingestion.
Test unit preparation: A robotic system dispenses 150 microliters of freshly prepared artificial lepidopteran diet into each well of a 96-well microtiter plate. The plates are held overnight at 22° C. to allow proper cooling and drying prior to treatment and infestation.
Compound formulation and application: Compounds are formulated in dimethyl sulfoxide at 4-micrograms per microliter. A robotic system automatically dispenses 2 microliters of each of the compound solutions into individual wells of the prepared test units. Each treatment is replicated 6 times. As part of the application process, a 200 ppm concentration of the commonly used synergist, piperonyl butoxide is co-applied to each well to increase the sensitivity of this assay. After application, plates are allowed to dry 5-6 hours in a fume hood. When dry, the plates are covered with a matching lid and held overnight in a sealed container prior to infestation.
Infestation: One day after application, each treated well is infested with 3-5, tobacco budworm eggs.
Holding and assessment: Once infested, the plates are covered with a clear plastic lid. The plates are stacked and held in an incubator at 29° C. […]

[2] = system: Yellow Fever Mosquito Aedes aegypti; test: Insecticidal assay 4, yellow fever mosquito larvae, 96-well plate; details: A. aegypti first instar larvae in water; 1.5 microliters of 4 micrograms per microliter in DMSO per well; assessed after 72 hours at 22° C.
Excerpt: 4. Insecticidal Assay for Yellow Fever Mosquito Aedes aegypti:
Objective: To evaluate the insecticidal activity of compounds against A. aegypti larvae through contact and ingestion.
(§1) Test unit preparation: Empty, 96-well microtiter plates are loaded onto a robotic dispensing system prior to application.
Formulation and application: Compounds are formulated in dimethyl sulfoxide at 4-micrograms per microliter. A robotic system dispenses 1.5 microliters of each formulated experimental solution into each well of an empty, 96-well microtiter plate. Each treatment is replicated 3 times.
Infesting: Subsequent to application, recently hatched, mosquito larvae are suspended in water containing 0.4% mosquito diet (1:3 mix of brewers yeast to liver powder). A robotic system dispenses aliquots of this aqueous solution containing 5-8 first instar mosquitoes into each well of the treated plates.
Holding and assessment: After infestation, the plates are covered with a matching clear plastic lid. Infested plates are stacked and held in an incubator at 22° C. for 72 hours. At assessment, cells are examined by means of a dissecting microscope for insecticidal effects.

[3] = system: Root-Knot Nematode Meloidogyne incognita; test: Insecticidal assay 5, root-knot nematode, 96-well plate with foxtail millet; details: M. incognita eggs; 5 micrograms of compound per well; soil/polymer media with foxtail millet seeds; assessed after 7 days at 27° C.
Excerpt: 5. Insecticidal Assay for Root-Knot Nematode Meloidogyne incognita:
Objective: To evaluate the insecticidal activity of compounds against M. incognita through contact and ingestion.
as §1
Formulation and application: A robotic system dispenses 25 microliters of ethanol and 5 micrograms of compound, diluted in dimethyl sulfoxide, into each well of a 96-well flat-bottomed, microtiter plate. There are 3 replicates per treatment. The plates are held 24 hours to allow proper drying prior to further preparation and infestation.
Additional test unit preparation and infestation: After drying, 16 milligrams of media consisting of 2 parts fine soil and 1 part absorbent polymer is added to each well of the treated 96-well plates. Once the media is in place, a 200 microliter aqueous suspension of rootknot nematode eggs is added to each well forming a gelatinous substrate. Into each of these wells are distributed 10 foxtail millet Seteria italica seeds. Following this “planting” an identical plate is sealed to the top of the treated plate to allow space for the millet to grow.
Holding and assessment: Once the lids are in place, the plates are held at 27° C. and 75% relative humidity under bright indirect lights. […]

[4] = system: Large Milkweed Bug Oncopeltus fasciatus; test: Insecticidal assay 6, large milkweed bug, 96-well diet plate; details: O. fasciatus second instar; 2 microliters of 4-microgram/microliter in DMSO per well on diet; assessed after 6 days at 29° C.
Method: 6. Insecticidal Assay for Large Milkweed Bug Oncopeltus fasciatus:
Objective: To assess the insecticidal activity of compounds against O. fasciatus through contact and ingestion.
Test unit preparation: A robotic system dispenses 100 microliters of freshly prepared artificial diet into each well of a 96-well microtiter plate. The plates are held overnight at 22° C. to allow proper cooling and drying prior to treatment and infestation.
Compound formulation and application: Compounds are formulated in dimethyl sulfoxide at 4-microgram/microliter. A robotic system automatically dispenses 2 microliters of each of the experimental compound solutions into individual wells of the prepared test units. There are 6 replicates per treatment. After application, plates are allowed to dry 5-6 hours in a fume hood. When dry, the plates are covered with a matching lid and held overnight in a sealed container prior to infestation.
Infestation: One day after application, each treated well is infested with 3-5 second instar milkweed bugs.
Holding and assessment: Once infested, the plates are covered with a clear plastic lid. The plates are then stacked and held in an incubator at 29° C. After 6 days, each well is examined by means of a dissecting microscope for insecticidal effect.

[5] = system: Beet Armyworm Spodoptera exigua; test: Insecticidal assay 7, beet armyworm, diet cups; details: S. exigua second instar; 250 microliters of 400 ppm and 25 ppm solutions on diet in cups; assessed 5 days after infestation
Method: 7. Insecticidal Assay for Beet Armyworm Spodoptera exigua:
Objective: To assess the insecticidal activity of compounds against S. exigua, through contact and ingestion.
(§2) Test unit preparation: 8 milliliters of lepidopteran diet is dispensed into one ounce clear plastic portion cups. The diet is allowed to cool before storage or use.
(§3) Formulation and application: Eight milligrams of technical compound is dissolved in 20 milliliters of 2:1 acetone:tap water diluent to form a 400 ppm solution. An aliquot of this solution is also used to prepare a 25 parts per million concentration. 250 microliters of each solution is then pipetted onto the surface the diet in each cup. Each treatment is replicated 10 times.
Infestation: Once the treated cups have dried, a single second-instar beet armyworm is placed on the treated diet in each cup.
(§4) Holding and assessment: Treated and infested diet cups or are capped and then held in a chamber at 25° C. and 50% relative humidity. 14-hours light:10-hours dark. 5 days after infestation the larvae are assessed for insecticidal effects.

[6] = system: Tobacco Budworm Heliothis virescens; test: Insecticidal assay 8, tobacco budworm, diet cups; details: H. virescens second instar; 250 microliters of 400 ppm and 25 ppm solutions on diet in cups; assessed 5 days after infestation
Method: 8. Insecticidal Assay for Tobacco Budworm Heliothis virescens:
Objective: To assess the insecticidal activity of compounds against H. virescens through contact and ingestion.
as §2, §3
Infestation: Once the treated cups have dried, a single second-instar tobacco budworm is placed on the treated diet in each cup.
as §4

[7] = system: Cabbage Looper Tricoplusia ni; test: Insecticidal assay 9, cabbage looper, cabbage leaf disc dip; details: T. ni second instar; cabbage leaf discs dipped in 400 ppm and 25 ppm solutions; assessed 5 days after infestation
Method: 9. Insecticidal Assay for Cabbage Looper Tricoplusia ni:
Objective: To assess the insecticidal activity of compounds against T. ni through contact and ingestion.
Formulation and application: Eight milligrams of technical compound is dissolved in 20 milliliters of 2:1 acetone:tap water diluent to form a 400 ppm solution. An aliquot of this solution is also used to prepare a 25 parts per million concentration. 3.5 centimeter diameter leaf discs cut from cabbage leaves are dipped into each solution until thoroughly wet. Each treatment is replicated 10 times. After air-drying, the treated discs are placed individually into one-ounce plastic cups.
Infestation: Once the leaf discs have dried, a single second instar cabbage looper is place on the cabbage disc in each cup.
Holding and assessment: Treated and infested cups or are capped and then held in a chamber at 25° C. and 50% relative humidity, 14-hours light:10-hours dark. 5 days after infestation the larvae are assessed for insecticidal effects.

[8] = system: Beet Armyworm Spodoptera exigua; test: Insecticidal assay 10, beet armyworm, 128 well bioassay trays; details: S. exigua second instar; 50 microliters of 1 milligram per milliliter stock or serial dilutions on diet per well; assessed 5 days after infestation
Method: 10. Insecticidal Assay for Beet Armyworm Spodoptera exigua:
Objective: To assess the insecticidal activity of compounds against S. exigua through contact and ingestion.
(§5) Test unit preparation: 128 well bioassay trays are prepared by injecting each well with approximately 1 milliliter of prepared lepidopteran diet. Trays are allowed to dry prior to use.
(§6) Compound formulation and application: A 1 milligram per milliliter, stock solution is prepared for each compound by adding 2 milliliters of acetone/water diluent (9:1) to a vial containing 2 milligrams of technical compound. From this stock solution, additional doses may be produced through serial dilution. Once the appropriate concentrations have been prepared, 50 microliters of each solution is applied to the surface of the diet in each of 8 wells. Upon completing application, the trays are allowed to dry.
Infestation: Once dry, each well is infested with a single second instar beet armyworm. The infested wells are sealed with self sticking, ventilated plastic covers.
(§7) Holding and assessment: After infestation and sealing, the trays are placed in a growth chamber at 25 C and 40% relative humidity. 5 days after infestation the larvae are assessed for insecticidal effects.

[9] = system: Corn Earworm Helicoverpa zea; test: Insecticidal assay 11, corn earworm, 128 well bioassay trays; details: H. zea second instar; 50 microliters of 1 milligram per milliliter stock or serial dilutions on diet per well; assessed 5 days after infestation
Method: 11. Insecticidal Assay for Corn Earworm Helicoverpa zea:
Objective: To assess the insecticidal activity of compounds against H. zea, through contact and ingestion.
as §5, §6
Infestation: Once dry, each well is infested with a single second instar corn earworm. Infested wells are sealed with self sticking, ventilated plastic covers.
as §7

[10] = system: German Cockroach Blattella germanica; test: Insecticidal assay 12, German cockroach, 96-well diet plate; details: B. germanica second instar; 2 microliters of 4-microgram/microliter in DMSO per well on diet; assessed after 6 and 13 days at 29° C.
Method: 12. Insecticidal Assay for German Cockroach Blattella germanica: Objective: Assessment of the insecticidal activity of compounds against B. germanica through contact and ingestion. Test unit preparation: A robotic system dispenses 100 microliters of freshly prepared artificial diet into each well of a 96-well microtiter plate. The plates are held overnight at 22° C. to allow proper cooling and drying prior to treatment and infestation. Compound formulation and application: Compounds are formulated in dimethyl sulfoxide at 4-microgram/microliter. A robotic system automatically dispenses 2 microliters of each compound solution into individual wells of the prepared test units. Each treatment is replicated 3 times. After application, plates are allowed to dry 5-6 hours in a fume hood. When dry, the plates are covered with a matching lid and held overnight in a sealed container prior to infestation. Infestation: One day after application, each treated well is infested with 3-5, second instar cockroaches. Holding and assessment: Once infested, the plates are covered with a clear plastic lid. The plates are stacked and held in an incubator at 29° C. After 6 and 13 days respectively, each well is examined by means of a dissecting microscope for insecticidal effects.

[11] = system: Western Tarnished Plant Bug Lygus hesperus; test: Insecticidal assay 13, western tarnished plant bug, sprayed egg-infested snow pea pods; details: L. hesperus eggs and emergent nymphs; airbrush spray on egg-infested snow pea pods; assessed after 10 days
Method: 13. Insecticidal Assay for Western Tarnished Plant Bug Lygus hesperus:
Objective: Assessment of the insecticidal activity of compounds against L. hesperus through egg contact and contact/ingestion activity on emergent nymphs.
Test Unit preparation: Female lygus are allowed to oviposit on snow pea pods, these pods are then placed in plastic Petri dishes.
Formulation and application: Compounds are dissolved in acetone and further dilutes with water containing 0.025% Tween 20. The solutions are sprayed on the Petri dishes and the egg-infested snow pea pods using an airbrush.
Holding and assessment: The Petri dishes are held for 10 days under controlled conditions at which time the emerging nymphs are assessed for insecticidal effects.

[12] = system: Cotton Aphid Aphis gossypii; test: Insecticidal assay 14, cotton aphid, foliar spray on squash; details: A. gossypii all life stages on squash; 50 and 5 parts per million spray solutions; assessed 3 days after treatment
Method: 14. Insecticidal Assay for Cotton Aphid Aphis gossypii:
Objective: To assess the insecticidal activity of compounds against A. gossypii through contact and ingestion.
(§8) Formulation and application: One (1) milligram of each technical synthetic organic compound was dissolved in 1 milliliters of a 90:10 acetone:ethanol solvent. This 1 milliliter of chemical solution was added to 19 milliliters of distilled water containing 0.05% Tween 20 surfactant to produce a 50 parts per million spray solution. A 5 part per million solution was then prepared from the 50 part per million stock.
Test unit preparation and infestation: One week old ‘Crookneck’ squash plants, trimmed to one cotyledon per plant, are infested with cotton aphids (all life stages). Sections of heavily infested colony squash leaves were placed on the untreated squash cotyledons 16-20 hrs prior to spraying. As the infested sections dried out, the aphids moved to the succulent plant material. Plants are examined to ensure even infestation prior to application.
(§9) Application: The plants are sprayed on both sides of all leaves with a hand-held atomizing sprayer until solutions are completely used. […]
Holding and assessment: The plants are allowed to air dry and are then held for 3 days in a controlled room at 26° C. and 40% relative humidity prior to grading. 3 days after treatment the aphids are assessed for insecticidal effects.

[13] = system: Green Peach Aphid Myzus persicae; test: Insecticidal assay 15, green peach aphid, foliar spray on cabbage seedlings; details: M. persicae on cabbage seedlings; 50 and 5 parts per million spray solutions; assessed 3 days after treatment
Method: 15. Insecticidal Assay for Green Peach Aphid Myzus persicae:
Objective: To assess the insecticidal activity of compounds against M. persicae through contact and ingestion.
as §8
Test unit preparation and infestation: Cabbage seedlings, with 2 to 3 first true leaves emerged (12 days after planting) are culled to 1 plant per 3 inch pot. Treatments consisted of 4 replicates. Four days prior to application, heavily infested colony turnip leaves are shaken above the untreated plants. Shaking dislodges the aphids and they migrate to succulent plant material. Plants are examined to ensure even infestation prior to application.
as §9
Holding and assessment: The plants are allowed to air dry and are then held for 3 days in a controlled room at 26° C. and 40% relative humidity. 3 days after treatment the aphids are assessed for insecticidal effects.

Measured: insecticidal activity

N#Cc1c(NNc2c(Cl)cc(C(F)(F)F)cc2Cl)nc(C(F)(F)F)nc1C(F)(F)F [Compound 11, 4-[N′-(2,6-dichloro-4-trifluoromethyl-phenyl)-hydrazino]-2,6-bis-trifluoromethyl-pyrimidine-5-carbonitrile]
significant insecticidal activity: all assays above

CN(Nc1nc(C(F)(F)F)nc(C(F)(F)F)c1C#N)c1ccc(C#N)cn1 [Compound 30]
significant insecticidal activity: [2]
